Patent publication US20240199571A1, “THIOPHENE COMPOUND AND APPLICATION THEREOF” (MEDSHINE DISCOVERY INC., priority 2021, published 2024)
pIC50: −log10 of the molar value. Counter-ions that a name gives are not always drawn.

Assays:
[1] = test system: NCI-H1417 cells; assay: Experiment 2: inhibition of NCI-H1417 cell proliferation (CellTiter-Glo, 10 days); format: cell-based; details: Homo sapiens, 240 h, 10 days incubation
How it was run: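 Cells at 1000 per well exposed to 10-point 3-fold dilutions from 10 μM top concentration for 10 days. Viability by CellTiter-Glo luminescence; inhibition normalized to max/min controls, IC50 from four-parameter fit.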

[2] = target: human LSD1 (Homo sapiens (Human), UniProt O60341); assay: Experiment 1B: in vitro LSD1 enzyme activity, enzyme-coupled fluorescence (HRP/Amplex Red), H3(1-21)K4me2 peptide 10 μM (Reaction Biology); format: biochemical; details: histone H3(1-21)K4me2 peptide 10 μM
How it was run: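 Human LSD1 with 10 μM histone H3(1-21)K4me2 peptide; enzyme and substrate incubated 30 min before compound addition started the reaction. H2O2 detected via HRP/Amplex Red fluorescence (Ex/Em 535/590). IC50 from 10-point 3-fold dilutions starting at 10 μM.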

| Compound | pIC50 [1] | pIC50 [2] |
| --- | --- | --- |
| CC(C)(CO)n1cc2cc(-c3sc(C(=O)N4CCC[C@@H](N)C4)cc3-c3ccc(C#N)c(F)c3)ccc2n1 [Hydrochloride of compound 87] | 8.29 | 7.61 |
| CN[C@@H]1CCCN(C(=O)c2cc(-c3ccc(C#N)c(F)c3)c(-c3cc4nnn(CC(C)(C)O)c4c(F)c3F)s2)C1 [Hydrochloride of compound 98] | 10.15 | 7.90 |
